Test results reported in paper PMC11574108, “4-Furanylvinylquinoline derivative as a new scaffold for the design of oxidative stress initiator and glucose transporter inhibitor drugs” (Scientific Reports, 2024).
Where “and” joins values, the source holds several entries; their conditions need not be identical. Identical values can stand only once.

How the values were obtained:
HCT 116 p53-/- = assay: Monolayer antiproliferative MTS assay; format: cell-based, human; details: 2D monolayer; for IC50: MTS, 72-h incubation; for SI (selectivity index) HCT 116 p53-/-: relative to NHDF
Description: (§1) The human colon carcinoma cell line HCT 116 with wild-type p53 (p53^+/+) and the human glioblastoma cell line U-251 were obtained from ATCC, while the HCT 116 with a p53 deletion (p53^−/−) was kindly provided by Prof. M. Rusin from the Maria Sklodowska-Curie Memorial Cancer Center and Institute of Oncology in Gliwice, Poland. The human chronic myelogenous leukaemia cell line K562 and the normal human cell dermal fibroblast cell line NHDF were purchased from Sigma-Aldrich and PromoCell, respectively. Both the HCT 116 and U-251 cell lines were cultured in Dulbecco’s modified Eagle’s medium (DMEM) supplemented with 10% inactivated foetal bovine serum (FBS). The DMEM for the NHDF contained 15% non-inactivated FBS. K562 cells were cultured in RPMI medium completed by 10% inactivated FBS. Additionally, the media were supplemented with antibiotics (streptomycin and penicillin – 1% v/v; Sigma-Aldrich). The cell culture was conducted in 75 cm^2 flasks (Nunc) under standard conditions (37 °C, 5% CO2 humidified atmosphere). Furthermore, the cell lines were frequently tested for mycoplasma using the qRT-PCR technique with specific Mycoplasma primers to confirm the lack of contamination.
(§2) The cells were seeded in 96-well plates (Nunc) with 5,000 or 4,000 cells per well for the cancer cells and NHDF, respectively, and incubated under standard conditions at 37 °C overnight. The culture media were then changed for freshly prepared solutions of the tested compounds in various concentrations. After 72-h incubation the antiproliferative assay was carried out as follows: the solutions of the compounds were changed in each well to 100 µL DMEM without phenol red and 20 µL of CellTiter 96 AQueous One Solution-MTS (Promega). The plates were incubated for 1 h at 37 °C, and the absorbance was then measured at 490 nm using a multi-plate reader (Synergy 4, BioTek). The experiment for each sample was repeated at least three times.
(§3) Additionally, the compounds were also tested for their cytotoxicity against normal cells – human dermal fibroblasts (NHDF).

HCT 116 p53+/+ = assay: Monolayer antiproliferative MTS assay; format: cell-based, human; details: 2D monolayer; for IC50: MTS, 72-h incubation; for SI (selectivity index) HCT 116 p53+/+: relative to NHDF
Description: as §1, §2, §3

NHDF = assay: Monolayer MTS cytotoxicity against normal cells; format: cell-based; details: normal human dermal fibroblasts, 72-h incubation
Description: as §1, §2, §3

GLUT-1 = assay: Western blot, GLUT-1 protein level; format: cell-based, human; details: HCT 116 p53+/+, DOX 5 µM, both time points (24 and 48 h)
Description: The cells (500,000) were seeded in 35 mm Petri dishes (Nunc) and incubated in a solution of the tested compound (0.5 µM and 1 µM) for 24 h and 48 h. The cells were then dissociated using trypsin, collected in Eppendorf tubes, and centrifuged at 2,000 rpm. Next, cell pellets were resuspended in complete RIPA buffer containing a Halt Protease Inhibitor Cocktail and Halt Phosphatase Inhibitor Cocktail along with 0.5 M EDTA (all reagents from Thermo Fisher Scientific) and lysed on ice for 20 min. Afterward, the lysates were sonicated and centrifuged at 10,000 rpm for 10 min at 4 °C. The obtained supernatants were collected for further analysis. The protein concentration was determined using a Micro BCA™ Protein Assay Kit (Thermo Fisher Scientific) according to the manufacturer’s procedure. Equal amounts of proteins (16 µg) were electrophoresed on SDS-Page gels and transferred onto nitrocellulose membranes. Novex Sharp Pre-Stained Protein Standard (Thermo Fisher Scientific) was used as a colored molecular weight marker. The membranes were blocked in 5% non-fat milk prepared in TPBS (PBS supplemented by 0.1% Tween-20) for 1 h. After blocking, the membranes were cut, and then incubated with specific primary monoclonal antibodies (all purchased from Cell Signaling) overnight at 4 °C. The antibodies for the target proteins (CDK1 Mouse mAb #9116, p53 Mouse mAb #2524, FAS Mouse mAb #8023, GLUT-1 Rabbit mAb #12939, HO-1 Rabbit mAb #5853, p21^Waf1/Cip1 Rabbit mAb #2947, PARP #9542) were diluted 1:1000, while the antibodies for the reference proteins (GAPDH Rabbit mAb #2118, β-actin Mouse mAb #3700, and vinculin Rabbit mAb #13901) were diluted 1:2000. The following day, the membranes were washed in TPBS and incubated with horseradish peroxidase (HRP)-conjugated secondary antibodies (Anti-rabbit IgG, HRP-linked Antibody #7074 or Anti-mouse IgG, HRP-linked Antibody #7076) for 1 h at room temperature. The membranes were then washed in TPBS and incubated with a SuperSignal™ West Pico Chemiluminescent Substrate (Thermo Fisher Scientific). Finally, the membranes were visualized using a ChemiDoc™ XRS + System (Bio-Rad). The experiments were carried out four to five times. The densitometric analysis was performed using ImageJ software (Wayne Rasband, National Institutes of Health, USA).
We, therefore, decided to test the effect of the tested compound on the level of the main glucose transporter, GLUT-1. […] The validity of the described conclusions was confirmed by the results that were obtained for doxorubicin. in which p53 activation occurred at both tested time points with a concomitant decrease in the GLUT-1 levels. […] The results that were obtained from the measurements of the expression of this protein were so interesting, and at the same time, inconclusive that we additionally decided to determine the effect of the tested derivative 13 on the expression of the genes encoding selected glucose transporters.

K562 = assay: Monolayer antiproliferative MTS assay; format: cell-based, human; details: 2D model
Description: as §1
as §2, with “times. The results are presented as the half-maximal inhibitory concentration (IC50) values, which were estimated in comparison to untreated cells (control) and calculated using GraphPad Prism v.8.0 (USA).” for “times.”
(§4) However, the antiproliferative activity of derivative 13 with furan a ring was surprising. […] For this purpose, we selected two pancreatic cancer cell lines: AsPC-1, which is characterised by a deletion of the p53 protein[20] and PANC-1, which carries an R273H mutation. This mutation also occurred in the glioblastoma U-251 cell line[22],[23]. An additional non-adherent line that carries the TP53 mutation that results in the absence of p53 is the K562 leukemic cell line[24]. […] Moreover, 13 was selective toward […], as indicated by its SI values (3.35–9.41). Among all of the tested cell lines, the highest activity of the compound was found against the HCT 116 cells with the wild-type p53 protein (0.069 µM). […] The p53 protein also interacts with the metabolic pathways that are associated with glucose transport[25] as well as small molecules. In light of the above-mentioned facts, we also determined the cytotoxicity of the GLUT inhibitor BAY-876, which is based on a quinoline scaffold. […] Furthermore, BAY-876 was also toxic to normal cells.

U-251 = assay: Monolayer antiproliferative MTS assay; format: cell-based, human; details: 2D monolayer
Description: as §1
as §2, with “times. The results are presented as the half-maximal inhibitory concentration (IC50) values, which were estimated in comparison to untreated cells (control) and calculated using GraphPad Prism v.8.0 (USA).” for “times.”
as §4

AsPC-1 = assay: Monolayer antiproliferative MTS assay; format: cell-based, human; details: 2D monolayer
Description: as §2, with “times. The results are presented as the half-maximal inhibitory concentration (IC50) values, which were estimated in comparison to untreated cells (control) and calculated using GraphPad Prism v.8.0 (USA).” for “times.”
as §4

PANC-1 = assay: Monolayer antiproliferative MTS assay; format: cell-based, human; details: 2D monolayer
Description: as §2, with “times. The results are presented as the half-maximal inhibitory concentration (IC50) values, which were estimated in comparison to untreated cells (control) and calculated using GraphPad Prism v.8.0 (USA).” for “times.”
as §4

| SMILES | melting point [°C] | IC50 (NHDF; NHDF) [nM] | SI (selectivity index) HCT 116 p53-/- (HCT 116 p53-/-) | IC50 (HCT 116 p53-/-; Homo sapiens, HCT-116, 72 h) [nM] | SI (selectivity index) HCT 116 p53+/+ (HCT 116 p53+/+) | IC50 (HCT 116 p53+/+; Homo sapiens, HCT-116, 72 h) [nM] | further results |
| --- | --- | --- | --- | --- | --- | --- | --- |
| Oc1cccc2ccc(/C=C/c3ccco3)nc12 [Compound 1] | – | – | – | – | – | – | IC50 (HCT 116 p53-/-): > 25000 nM; IC50 (HCT 116 p53+/+): > 25000 nM |
| Cc1ccc(/C=C/c2ccc3cccc(O)c3n2)o1 [Compound 2] | – | – | – | – | – | – | IC50 (HCT 116 p53-/-): > 25000 nM; IC50 (HCT 116 p53+/+): > 25000 nM |
| O=[N+]([O-])c1ccc(/C=C/c2ccc3cccc(O)c3n2)o1 [Compound 3] | 189 to 191 | – | – | – | – | – | – |
| CC(=O)Oc1cccc2ccc(/C=C/c3ccc([N+](=O)[O-])o3)nc12 [Compound 4] | 173 to 175 | 670 ± 80 | 2.79 | 240 ± 50 | 3.35 | 200 ± 30 | – |
| O=[N+]([O-])c1ccc(/C=C/c2cc(O)c3ccccc3n2)o1 [Compound 5] | 306 to 308 | 450 ± 70 | 1.50 | 300 ± 70 | 1.50 | 300 ± 100 | – |
| Oc1c(Cl)cc(Cl)c2ccc(C=Cc3ccco3)nc12 [Compound 6] | – | – | – | – | – | – | IC50 (NHDF): > 25000 nM; IC50 (HCT 116 p53-/-): 2700 nM and 2720 nM; IC50 (HCT 116 p53+/+): 4000 nM and 4010 nM |
| O=[N+]([O-])c1ccc(/C=C/c2ccc3c(Cl)cc(Cl)c(O)c3n2)o1 [Compound 7] | 270 to 271 | > 25000 | > 18.80 | 1330 ± 250 | > 7.23 | 3460 ± 340 | – |
| CC(=O)Oc1c(Cl)cc(Cl)c2ccc(/C=C/c3ccc([N+](=O)[O-])o3)nc12 [Compound 8] | 220 to 222 | 11400 ± 2530 | 10.13 | 1120 ± 510 | 5.46 | 2080 ± 400 | – |
| O=[N+]([O-])c1ccccc1/C=C/c1ccnc2ccccc12 [Compound 9] | 161 to 163 | – | – | > 25000 | – | > 25000 | – |
| O=[N+]([O-])c1cccc(/C=C/c2ccnc3ccccc23)c1 [Compound 10] | 111 to 112 | – | – | > 25000 | – | > 25000 | – |
| O=[N+]([O-])c1ccc(/C=C/c2ccnc3ccccc23)cc1 [Compound 11] | 228 to 229 | – | – | > 25000 | – | > 25000 | – |
| O=[N+]([O-])c1ccc(/C=C/c2ccnc3ccccc23)c([N+](=O)[O-])c1 [Compound 12] | 200 to 201 | – | – | – | – | – | IC50 (HCT 116 p53-/-; Homo sapiens, HCT-116): > 25000 nM; IC50 (HCT 116 p53+/+; Homo sapiens, HCT-116): > 25000 nM |
| COc1cccc2c1C(=O)c1c(O)c3c(c(O)c1C2=O)C[C@@](O)(C(=O)CO)C[C@@H]3O[C@H]1C[C@H](N)[C@H](O)[C@H](C)O1 [Doxorubicin, reference compound] | – | 140 ± 30 | 0.37 | – | 0.41 | – | GLUT-1 protein level vs control (GLUT-1): decrease; IC50 (HCT 116 p53-/-; Homo sapiens, HCT-116): 380 ± 30 nM; IC50 (HCT 116 p53+/+; Homo sapiens, HCT-116): 340 ± 40 nM; SI (selectivity index) K562 (K562; relative to NHDF): 7.00; IC50 (K562; Homo sapiens, K562, MTS, 72-h incubation): 20 ± 10 nM; SI (selectivity index) U-251 (U-251; relative to NHDF): 2.80; IC50 (U-251; Homo sapiens, U-251, MTS, 72-h incubation): 50 ± 20 nM; SI (selectivity index) AsPC-1 (AsPC-1; relative to NHDF): 0.16; IC50 (AsPC-1; Homo sapiens, ASPC1, MTS, 72-h incubation): 860 ± 130 nM; SI (selectivity index) PANC-1 (PANC-1; relative to NHDF): 0.19; IC50 (PANC-1; Homo sapiens, PANC-1, MTS, 72-h incubation): 730 ± 90 nM |
